Test [1] has as its target T1, cone CNG channel (CNGA3/CNGB3) (Homo sapiens, UniProt Q16281+Q9NQW8).
T1 construct: heterotetramer 3 CNGA3 : 1 CNGB3; subunits in pGEMHE, cRNA ratio 1:2.5, expressed in Xenopus laevis oocytes; inside-out patches
T1 sequence (Q16281 1-694): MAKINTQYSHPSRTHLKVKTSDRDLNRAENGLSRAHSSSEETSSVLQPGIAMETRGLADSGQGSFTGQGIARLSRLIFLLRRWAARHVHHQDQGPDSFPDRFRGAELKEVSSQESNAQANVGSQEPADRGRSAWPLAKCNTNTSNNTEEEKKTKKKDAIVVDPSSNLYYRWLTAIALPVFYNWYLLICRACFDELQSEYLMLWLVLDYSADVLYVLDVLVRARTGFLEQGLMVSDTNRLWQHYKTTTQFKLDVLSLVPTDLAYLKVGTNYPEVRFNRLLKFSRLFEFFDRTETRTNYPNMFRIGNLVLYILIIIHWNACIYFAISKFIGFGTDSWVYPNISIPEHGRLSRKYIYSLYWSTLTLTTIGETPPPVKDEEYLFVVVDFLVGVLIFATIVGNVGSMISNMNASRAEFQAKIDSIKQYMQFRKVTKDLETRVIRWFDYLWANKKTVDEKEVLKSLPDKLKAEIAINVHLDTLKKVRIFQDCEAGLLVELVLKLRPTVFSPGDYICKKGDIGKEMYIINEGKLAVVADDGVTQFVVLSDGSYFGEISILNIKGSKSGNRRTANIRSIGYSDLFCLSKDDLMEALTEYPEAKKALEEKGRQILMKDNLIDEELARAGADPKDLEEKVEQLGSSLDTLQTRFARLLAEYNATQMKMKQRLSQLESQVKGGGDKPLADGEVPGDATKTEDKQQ
T1 sequence (Q9NQW8 1-809): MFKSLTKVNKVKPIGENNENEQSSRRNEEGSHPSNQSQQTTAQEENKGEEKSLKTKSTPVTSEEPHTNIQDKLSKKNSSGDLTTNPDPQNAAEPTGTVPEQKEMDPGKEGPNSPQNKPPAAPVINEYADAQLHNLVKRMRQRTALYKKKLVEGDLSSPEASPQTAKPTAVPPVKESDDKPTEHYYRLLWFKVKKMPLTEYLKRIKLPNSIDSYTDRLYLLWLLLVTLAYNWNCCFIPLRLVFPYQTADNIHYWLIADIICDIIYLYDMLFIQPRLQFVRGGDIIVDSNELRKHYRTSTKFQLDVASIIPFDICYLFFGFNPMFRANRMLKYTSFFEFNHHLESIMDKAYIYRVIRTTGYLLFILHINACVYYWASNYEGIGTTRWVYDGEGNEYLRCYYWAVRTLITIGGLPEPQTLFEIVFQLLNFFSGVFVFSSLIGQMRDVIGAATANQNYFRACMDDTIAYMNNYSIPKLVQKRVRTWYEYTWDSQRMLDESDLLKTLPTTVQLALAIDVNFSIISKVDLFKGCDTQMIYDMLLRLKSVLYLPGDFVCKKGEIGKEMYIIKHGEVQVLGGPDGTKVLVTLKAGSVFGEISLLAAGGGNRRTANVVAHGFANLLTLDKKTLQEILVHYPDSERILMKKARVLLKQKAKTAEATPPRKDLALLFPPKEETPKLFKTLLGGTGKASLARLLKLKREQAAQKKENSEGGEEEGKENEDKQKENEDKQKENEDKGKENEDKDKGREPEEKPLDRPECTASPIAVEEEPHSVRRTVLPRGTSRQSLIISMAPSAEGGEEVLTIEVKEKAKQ
The test can be described thus: inside-out patch clamp, Xenopus oocytes, Hill fit. The test is classed as cell-based.

Test [2] has as its target T2, rod CNG channel (CNGA1/CNGB1a) (Bos taurus, UniProt Q00194+Q28181).
T2 construct: heterotetramer 3 CNGA1 : 1 CNGB1a; subunits in pGEMHE, cRNA ratio 1:4, expressed in Xenopus laevis oocytes; inside-out patches
The test can be described thus: inside-out patch clamp, Xenopus oocytes, Hill fit. The format is cell-based.

Test [3] has as its target T2, rod CNG channel (CNGA1/CNGB1a). Description: inside-out patch clamp, Xenopus oocytes, current relative to saturating cGMP. The note with it: partial agonist; up to 5 mM analogue vs 3 mM cGMP, pH 7.4, room temperature. The test is classed as biochemical.
For test [4], the target named is T1, cone CNG channel (CNGA3/CNGB3). The test is described as above. The settings on record: partial agonist; saturating analogue vs 1 mM cGMP, pH 7.4, room temperature. The format is biochemical.

Read-outs that look alike come from different tables or passages of the source.

T2 sequence (Q00194 whole entry): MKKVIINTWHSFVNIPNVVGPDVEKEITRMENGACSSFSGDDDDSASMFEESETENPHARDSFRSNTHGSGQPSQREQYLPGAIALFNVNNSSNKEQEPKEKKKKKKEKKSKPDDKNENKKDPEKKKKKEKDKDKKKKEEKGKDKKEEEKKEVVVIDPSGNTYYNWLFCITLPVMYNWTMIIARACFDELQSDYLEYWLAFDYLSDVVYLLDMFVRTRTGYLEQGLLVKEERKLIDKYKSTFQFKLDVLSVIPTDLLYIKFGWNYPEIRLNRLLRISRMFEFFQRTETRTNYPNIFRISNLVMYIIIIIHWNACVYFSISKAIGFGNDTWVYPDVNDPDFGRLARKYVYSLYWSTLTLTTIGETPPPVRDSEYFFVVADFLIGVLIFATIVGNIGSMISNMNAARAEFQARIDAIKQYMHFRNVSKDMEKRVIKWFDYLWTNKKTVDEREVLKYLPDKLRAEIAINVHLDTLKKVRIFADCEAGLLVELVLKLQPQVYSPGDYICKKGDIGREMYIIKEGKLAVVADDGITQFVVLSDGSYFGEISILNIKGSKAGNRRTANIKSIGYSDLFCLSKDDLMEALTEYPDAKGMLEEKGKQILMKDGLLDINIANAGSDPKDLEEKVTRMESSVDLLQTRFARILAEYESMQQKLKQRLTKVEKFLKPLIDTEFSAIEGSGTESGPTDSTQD
T2 sequence (Q28181 whole entry): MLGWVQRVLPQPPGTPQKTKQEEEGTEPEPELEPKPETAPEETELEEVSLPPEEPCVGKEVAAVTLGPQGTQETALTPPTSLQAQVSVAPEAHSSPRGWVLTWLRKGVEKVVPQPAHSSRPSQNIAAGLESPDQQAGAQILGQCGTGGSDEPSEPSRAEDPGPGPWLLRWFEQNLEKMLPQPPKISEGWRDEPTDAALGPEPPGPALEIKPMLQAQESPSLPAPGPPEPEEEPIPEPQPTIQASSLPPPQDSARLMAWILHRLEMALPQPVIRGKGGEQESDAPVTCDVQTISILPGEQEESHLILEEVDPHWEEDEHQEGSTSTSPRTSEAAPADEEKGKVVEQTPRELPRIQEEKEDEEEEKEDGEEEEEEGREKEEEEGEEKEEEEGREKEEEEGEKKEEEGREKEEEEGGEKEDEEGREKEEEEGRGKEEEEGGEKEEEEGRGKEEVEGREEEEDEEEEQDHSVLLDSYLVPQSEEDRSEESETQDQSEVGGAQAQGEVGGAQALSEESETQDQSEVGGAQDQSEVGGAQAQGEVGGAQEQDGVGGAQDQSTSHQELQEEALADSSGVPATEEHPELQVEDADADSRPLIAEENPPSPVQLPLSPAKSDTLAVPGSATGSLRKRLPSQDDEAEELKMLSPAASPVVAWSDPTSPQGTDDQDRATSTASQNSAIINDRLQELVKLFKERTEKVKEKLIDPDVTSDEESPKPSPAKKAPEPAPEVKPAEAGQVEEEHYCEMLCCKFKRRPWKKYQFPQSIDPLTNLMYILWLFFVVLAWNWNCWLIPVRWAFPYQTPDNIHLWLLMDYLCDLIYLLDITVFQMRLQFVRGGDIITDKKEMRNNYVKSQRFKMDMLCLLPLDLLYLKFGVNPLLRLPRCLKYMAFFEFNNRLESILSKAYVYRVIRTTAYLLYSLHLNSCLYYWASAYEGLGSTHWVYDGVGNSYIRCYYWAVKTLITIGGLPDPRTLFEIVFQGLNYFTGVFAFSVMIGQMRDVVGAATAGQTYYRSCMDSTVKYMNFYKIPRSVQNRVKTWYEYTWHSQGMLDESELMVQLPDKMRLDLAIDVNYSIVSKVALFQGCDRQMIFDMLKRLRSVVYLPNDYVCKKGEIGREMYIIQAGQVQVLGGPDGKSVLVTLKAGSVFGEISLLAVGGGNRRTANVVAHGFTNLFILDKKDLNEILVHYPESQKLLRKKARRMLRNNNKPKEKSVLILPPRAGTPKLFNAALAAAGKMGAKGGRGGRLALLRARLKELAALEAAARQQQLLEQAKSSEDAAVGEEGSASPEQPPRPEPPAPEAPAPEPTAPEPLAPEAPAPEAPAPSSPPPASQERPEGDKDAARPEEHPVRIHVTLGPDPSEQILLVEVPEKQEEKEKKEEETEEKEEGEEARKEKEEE

`Nc1nc2c(ncn2[C@@H]2O[C@@H]3COP(=O)(O)O[C@H]3[C@H]2O)c(=O)[nH]1` [cGMP] gave a concentration for a half-maximal effect (EC50) in test [1] of 18.7 µM.
As for `Nc1nc2c(nc(Br)n2[C@@H]2O[C@@H]3COP(=O)(O)O[C@H]3[C@H]2O)c(=O)[nH]1` [compound 1, 8-Br-cGMP], the EC50 in test [2] came out at 6.18 µM; in test [1] (channel activation (agonist), +100 mV, pH 7.4, room temperature), 1.04 µM.
Consider `Nc1nc(=O)c2nc(Sc3ccc(Cl)cc3)n([C@@H]3O[C@@H]4COP(=O)(O)O[C@H]4[C@H]3O)c2[nH]1` [compound 2, 8-pCPT-cGMP], for which the EC50 stood at 0.77 µM in test [2] and 0.09 µM in test [1].
Take `O=c1c2ncn([C@@H]3O[C@@H]4COP(=O)(O)O[C@H]4[C@H]3O)c2nc2[nH]c(-c3ccccc3)cn12` [compound 3, PET-cGMP]: the “% activation relative to cGMP” value in test [3] was ~ 41.2%; in test [4], “PET-cGMP, Rp-cGMPS, Sp-cGMPS, and Sp-8-pCPT-cGMPS, was only partially effective when activating cone CNG channels”.
Turning to `Nc1nc2c(ncn2[C@@H]2O[C@@H]3COP(O)(=S)O[C@H]3[C@H]2O)c(=O)[nH]1` (stereo partly shown) [compound 4, Rp-cGMPS], the entries for the “% activation relative to cGMP” value in test [3] and in test [4] were ~ 11% and ~ 43.6%, respectively.
Turning to `Nc1nc2c(ncn2[C@@H]2O[C@@H]3CO[P@](O)(=S)O[C@H]3[C@H]2O)c(=O)[nH]1` [compound 5, Sp-cGMPS], the “% activation relative to cGMP” value in test [3] is ~ 62.8%. The molecule further registered a concentration giving a half-maximal response (EC50) in test [1] of 2.88 µM.
As to `Nc1nc2c(nc(Sc3ccc(Cl)cc3)n2[C@@H]2O[C@@H]3CO[P@](O)(=S)O[C@H]3[C@H]2O)c(=O)[nH]1` [compound 7, Sp-8-pCPT-cGMPS], the EC50 is 42.8 µM in test [2] and 131 µM in test [1].

The values are drawn from paper PMC11027099 (ACS Chemical Neuroscience, 2024).
